Data: article PMC6150271, “‘Click Chemistry’ Synthesis of Novel Natural Product-Like Caged Xanthones Bearing a 1,2,3-Triazole Moiety with Improved Druglike Properties as Orally Active Antitumor Agents” (Molecules : A Journal of Synthetic Chemistry and Natural …, 2017)
Values after ≈ are worked out from the molar mass of the structure shown. Read-outs that look alike come from different tables or passages of the source. Marks after values point to notes of the source that are not given here.

Legend:
U2OS cells = experiment: MTT antiproliferative assay, U2OS; format: cell-based; conditions: Homo sapiens, 72 h
[1] = test system: lung cancer A549 transplanted mouse model; experiment: In vivo tumor growth inhibition, per os administration; set-up: species or system Kunming mice; conditions: for Body Weight After-Dose / Inhibitory Rate / Weight of Tumor: 50 mg/kg daily, one week; for Body Weight Pre-Dose: 50 mg/kg
Description: Subsequently, 8g was set to determine further its in vivo efficacy with per os administration on the growth of inoculated A549 in mice using DDO-6101 as a comparison control. […] Thus, compound 8g was identified as a new and orally-active natural-product-like caged xanthone and also a promising antitumor agent for further clinical development.
(§1) Kunming mice with body weights of 18–22 g were transplanted with lung cancer A549 cells according to protocols of transplant tumor research, as previously reported. Twenty-four hours after tumor transplantation, animals were weighed and randomly divided into five groups. All test drugs were given […] 24 h after tumor transplantation. The treated groups were intravenously injected or administered per os different doses of test compounds, respectively. The negative control group received 0.9% normal saline. Treatments were conducted at a frequency of one dose per two days for the intravenous group or one dose per day for the per os group for two or one week, respectively. All animals were sacrificed 24 h after the final treatment. All data are presented as mean ± SD and the statistical significance was evaluated by t-test.

[2] = Parallel artificial membrane permeability assay (PAMPA)
Description: (§2) In parallel with the in vitro antitumor activity testing, the physicochemical properties of the target caged xanthone derivatives were theoretically predicted and experimentally determined in an effort to identify potential druglike compounds prior to the time-consuming and costly development and optimization of derivatives that may ultimately fail in efficacy experiments in vivo. The partition coefficient (logD) was experimentally determined on a Gemini Profiler instrument (pION, Inc., Woburn, MA, USA) by a potentiometric titration method. The polar surface area (PSA), as well as intestinal absorption level, were theoretically predicted by Accelrys Discovery Studio 4.0 (BIOVIA, San Diego, CA, USA) using the ADMET protocol. […] The permeability coefficient (Pe) was determined using a standard parallel artificial membrane permeability assay (PAMPA) on a PAMPA Explorer instrument (pION).
A HPLC system with an ultraviolet (UV) detector was used to detect the solubility of the compounds. The optimal wavelength was 290 nm. Ethanol/water (85:15) was an efficient eluent at a flow rate of 0.5 mL/min. The compounds were stirred in deionized water overnight to maximize the retention of the compounds in solution. Then, the solutions were filtered and the supernatant was used as a fluid sample for HPLC detection. The permeability (Pe) of the compounds was tested with the help of a standard PAMPA (pION). PAMPA was performed on a PAMPA Explorer instrument (pION) with the PAMPA Explorer command software (Version 3.7.4.1). The compounds were diluted to 10 mM with the system solution buffer (pH 7.4). Then, 150 μL of the diluted compound solution was transferred to a UV plate, and the UV spectrum was collected and used as a reference. Then, paint the membrane with 5 μL of gastrointestinal tract (GIT) lipid. The acceptor chamber was filled with 200 μL of acceptor solution buffer, and the donor chamber was filled with 200 μL of diluted compound solution. […] The UV spectra (240–500 nm) from the donor and the acceptor were collected. The permeability coefficient was calculated with the PAMPA Explorer Command software (Version 3.7.4.1) based on the area under the curve (AUC) of the reference plate, the donor plate, and the acceptor plate. The permeability coefficient of the compound was tested for four times, and the data are shown as the average values.

[3] = test system: taxol-resistant A549 cell line (A549/taxol); experiment: MTT antiproliferative assay, A549/taxol; format: cell-based; conditions: Homo sapiens
Description: (§3) The antiproliferative activity of the ten synthesized caged xanthone derivatives, as well as the lead compound DDO-6101 and GA were assessed with the 3-(4,5-dimethylthiazol-2-yl)-2,5-diphenyltetrazolium bromide (MTT) assay, as previously reported, against six human cancer cell lines, including the human lung carcinoma A549 cell line, taxol-resistant A549 cell line (A549/taxol), cisplatin-resistant A549 cell line (A549/cisplatin), the human hepatocellular carcinoma HepG2 cell line, the human colon carcinoma HCT-116 cell line, and the human glioblastoma U251 cell line. DDO-6101 and GA were used as positive controls for the in vitro assay.
(§4) Cancer cell lines were obtained from Cell Bank of Shanghai, Chinese Academy of Sciences. Cells were cultured in 90% RPMI 1640 medium (GIBCO, Invitrogen Corporation, New York, NY, USA) supplemented with 10% fetal bovine serum (Sijiqing Biotechnology Co., Hangzhou, China), 100 U/mL benzyl penicillin, and 100 μg/mL streptomycin in a humidified environment with 5% CO2 at 37 °C. All the tested compounds were dissolved in DMSO at a concentration of 0.01 mol/L and stored at −4 °C.
(§5) The inhibition of tumour cell growth was measured by a modified tetrazolium (MTT) salt assay. Cells were cultured in a 96-well plate and treated with culture medium alone or different concentrations of the compounds. The cells were incubated for 72 h, and then the MTT assay reagent was added. After a 4 h incubation, the formazan product was quantitated at 570 nm. The IC50 values (the concentrations that gave rise to 50% inhibition of cell viability) were calculated using GraphPad Prism 6 using a variable slope (four parameters).

[4] = Aqueous solubility by HPLC; conditions: deionized water, thermodynamic from solid
Description: as §2
A HPLC system with an ultraviolet (UV) detector was used to detect the solubility of the compounds. The optimal wavelength was 290 nm. Ethanol/water (85:15) was an efficient eluent at a flow rate of 0.5 mL/min. The compounds were stirred in deionized water overnight to maximize the retention of the compounds in solution. Then, the solutions were filtered and the supernatant was used as a fluid sample for HPLC detection. The permeability (Pe) of the compounds was tested with the help of a standard PAMPA (pION). PAMPA was performed on a PAMPA Explorer instrument (pION) with the PAMPA Explorer command software (Version 3.7.4.1). The compounds were diluted to 10 mM with the system solution buffer (pH 7.4). Then, 150 μL of the diluted compound solution was transferred to a UV plate, and the UV spectrum was collected and used as a reference. Then, paint the membrane with 5 μL of gastrointestinal tract (GIT) lipid. The acceptor chamber was filled with 200 μL of acceptor solution buffer, and the donor chamber was filled with 200 μL of diluted compound solution. The PAMPA sandwich was assembled and left at 25 °C for 4 h. The UV spectra (240–500 nm) from the donor and the acceptor were collected. The permeability coefficient was calculated with the PAMPA Explorer Command software (Version 3.7.4.1) based on the area under the curve (AUC) of the reference plate, the donor plate, and the acceptor plate. The permeability coefficient of the compound was tested for four times, and the data are shown as the average values.

[5] = logD by potentiometric titration (Gemini Profiler); format: physicochemical; conditions: pH 7.4; measured on Gemini Profiler instrument (pION); read-out: Log D 7.4
[6] = test system: lung cancer A549 transplanted mouse model; experiment: In vivo tumor growth inhibition, intravenous administration; set-up: species or system Kunming mice; conditions: for Body Weight After-Dose / Inhibitory Rate / Weight of Tumor: two weeks
Description: The lung cancer A549 transplanted mouse model was employed. DDO-6101 and antitumor drug 5-fluorouracil (5-FU) were also tested for comparison.
as §1

[7] = test system: human colon carcinoma HCT-116 cell line; experiment: MTT antiproliferative assay, HCT116; format: cell-based; conditions: 72 h
Description: as §3, §4, §5

[8] = test system: human hepatocellular carcinoma HepG2 cell line; experiment: MTT antiproliferative assay, HepG2; format: cell-based; conditions: 72 h
Description: as §3, §4, §5

[9] = test system: human lung carcinoma A549 cell line; experiment: MTT antiproliferative assay, A549; format: cell-based; conditions: for IC50: Homo sapiens, A549, MTT, 72 h
Description: as §3, §4, §5

[10] = test system: cisplatin-resistant A549 cell line (A549/cisplatin); experiment: MTT antiproliferative assay, A549/cisplatin; format: cell-based; conditions: Homo sapiens, 72 h
Description: as §3, §4, §5

[11] = A549/Taxol, MTT, 72 h, read-out: IC50 A549/Taxol

For `CC(C)=CCC12OC(C)(C)C3CC(C=C4C(=O)c5c(O)cccc5OC431)C2=O` (centres unmarked) [DDO-6101, reference compound], which IC50 (U2OS cells) is on record?
Its IC50 is 5350 ± 80 nM.

And the “Body Weight After-Dose” value [1]?
The value was 26.69 ± 1.90 g.

What about the “Inhibitory Rate” value [1] of the same compound?
The value was 21.43%.

What about the “Weight of Tumor” value [1] of the same compound?
Its value is 1.10 ± 0.25 ^b g.

And the “Body Weight Pre-Dose” value [1]?
The value was 21.13 ± 1.02 g.

And the Papp at 4 h, 10 mM ([2]; pH 5)?
Its Papp at 4 h, 10 mM is 23.6 ± 5.5 ×10⁻⁶ cm/s.

And the Papp at 4 h, 10 mM ([2]; pH 6.2)?
Its Papp at 4 h, 10 mM is 25.8 ± 1.1 ×10⁻⁶ cm/s.

What about the Papp at 4 h, 10 mM ([2]; pH 7.4) of the same compound?
The Papp at 4 h, 10 mM was 18 ± 3.9 ×10⁻⁶ cm/s.

And the IC50 [3, 11]?
Its IC50 is 460 ± 30 nM.

And the solubility [4]?
The solubility was < 5 µM.

And the logD [5]?
Its logD is 2.9.

And the “Body Weight Pre-Dose” value ([6]; 20 mg/kg)?
Its value is 21.13 ± 1.22 g.

And the “Body Weight After-Dose” value ([6]; 20 mg/kg)?
The value was 27.69 ± 1.90 g.

What about the “Inhibitory Rate” value ([6]; 20 mg/kg) of the same compound?
The value was 34.56%.

And the “Weight of Tumor” value ([6]; 20 mg/kg)?
The value was 0.89 ± 0.18 ^b g.

What about the IC50 [7] of the same compound?
Its IC50 is 710 ± 100 nM.

And the IC50 [8]?
The IC50 was 2040 ± 80 nM.

Which IC50 (U2OS cells) does the source give for `CC(C)=CCC12OC(C)(C)C3CC(C=C4C(=O)c5c(OCc6cn(CCN7CCCC7)nn6)cccc5OC431)C2=O` (centres unmarked) [Compound 8c] here?
The IC50 was 2010 ± 200 nM.

What about the IC50 [9] of the same compound?
Its IC50 is 2580 ± 390 nM.

What about the Papp at 4 h, 10 mM ([2]; pH 5) of the same compound?
The Papp at 4 h, 10 mM was 42.3 ± 1.5 ×10⁻⁶ cm/s.

And the Papp at 4 h, 10 mM ([2]; pH 6.2)?
The Papp at 4 h, 10 mM was 75.4 ± 6.9 ×10⁻⁶ cm/s.

What about the Papp at 4 h, 10 mM ([2]; pH 7.4) of the same compound?
The Papp at 4 h, 10 mM was 91.9 ± 6 ×10⁻⁶ cm/s.

What about the IC50 [3, 11] of the same compound?
The IC50 was 1290 ± 70 nM.

And the solubility [4]?
The solubility was 1400 µM (≈ 782 µg/mL).

What about the IC50 [10] of the same compound?
The IC50 was 1340 ± 90 nM.

What about the logD [5] of the same compound?
The logD was 2.2.

What about the melting point of the same compound?
Its melting point is 168 to 170 °C.

What about the IC50 [7] of the same compound?
Its IC50 is 980 ± 310 nM.

And the IC50 [8]?
The IC50 was 1190 ± 310 nM.

Which results are given for `CC(C)=CCC12OC(C)(C)C3CC(C=C4C(=O)c5c(OCc6cn(CCN7CCOCC7)nn6)cccc5OC431)C2=O` (centres unmarked) [Compound 8g]?
IC50 (U2OS cells): 950 ± 210 nM; IC50 [9]: 310 ± 20 nM; fold higher activity than DDO-6101 in A549 cells ([9]; from IC50 values): approximately eight-fold; Body Weight After-Dose [1]: 27.73 ± 2.78 g; Inhibitory Rate [1]: 66.43%; Weight of Tumor [1]: 0.47 ± 0.12 ^a g; Body Weight Pre-Dose [1]: 20.67 ± 1.20 g; Papp at 4 h, 10 mM ([2]; pH 5): 51.3 ± 4.8 ×10⁻⁶ cm/s; Papp at 4 h, 10 mM ([2]; pH 6.2): 63.1 ± 5.6 ×10⁻⁶ cm/s; Papp at 4 h, 10 mM ([2]; pH 7.4): 74.4 ± 6.8 ×10⁻⁶ cm/s; Pe range ([2]; range under different pH from 5.0 to 7.4): 51.3–74.4 × 10^–6 cm/s; IC50 [3, 11]: 420 ± 50 nM; IC50 ([3]; range over both resistant A549 lines and both compounds, read-out: IC50 values, taxol-resistant and cisplatin-resistant A549 cell lines): 330 to 550 nM; solubility [4]: 3020 µM (≈ 1740 µg/mL); IC50 [10]: 330 ± 70 nM; logD [5]: 1.3; Body Weight Pre-Dose ([6]; 5 mg/kg): 20.80 ± 1.53 g; Body Weight After-Dose ([6]; 5 mg/kg): 28.53 ± 2.81 g; Inhibitory Rate ([6]; 5 mg/kg): 30.88%; Weight of Tumor ([6]; 5 mg/kg): 0.94 ± 0.24 ^a g; Body Weight Pre-Dose ([6]; 10 mg/kg): 21.40 ± 1.81 g; Body Weight After-Dose ([6]; 10 mg/kg): 28.08 ± 2.66 g; Inhibitory Rate ([6]; 10 mg/kg): 52.21%; Body Weight Pre-Dose ([6]; 20 mg/kg): 20.67 ± 1.30 g; Body Weight After-Dose ([6]; 20 mg/kg): 27.73 ± 2.78 g; Inhibitory Rate ([6]; 20 mg/kg): 71.32%; Weight of Tumor ([6]; 20 mg/kg): 0.40 ± 0.14 ^b g; Weight of Tumor [6]: 0.65 ± 0.17 ^b g; IC50 [7]: 280 ± 30 nM; IC50 [8]: 3790 ± 430 nM
